From ChEMBL document CHEMBL5500382, “Discovery of potent small molecule ubiquitin-specific protease 10 inhibitors with anti-hepatocellular carcinoma activity through regulating YAP expression” (Eur J Med Chem, 2024)

Columns and labels:
[1] = target: T1, Ubiquitin carboxyl-terminal hydrolase 10 (Homo sapiens, UniProt Q14694); assay: Inhibition of human USP10 deubiquitinase activity using Ubiquitin 7-amino-4-carbamoylmethylcoumarin as substrate preincubated for 30 mins followed by substrate addition and measured after 30 mins by fluorometric assay
[2] = target: T1, Ubiquitin carboxyl-terminal hydrolase 10; assay: Inhibition of human recombinant his tagged USP10 assessed as deubiquitinase activity
[3] = target: T2, Ubiquitin carboxyl-terminal hydrolase 13 (Homo sapiens, UniProt Q92995); assay: Inhibition of USP13 (unknown origin)
T2 sequence (Q92995 whole entry): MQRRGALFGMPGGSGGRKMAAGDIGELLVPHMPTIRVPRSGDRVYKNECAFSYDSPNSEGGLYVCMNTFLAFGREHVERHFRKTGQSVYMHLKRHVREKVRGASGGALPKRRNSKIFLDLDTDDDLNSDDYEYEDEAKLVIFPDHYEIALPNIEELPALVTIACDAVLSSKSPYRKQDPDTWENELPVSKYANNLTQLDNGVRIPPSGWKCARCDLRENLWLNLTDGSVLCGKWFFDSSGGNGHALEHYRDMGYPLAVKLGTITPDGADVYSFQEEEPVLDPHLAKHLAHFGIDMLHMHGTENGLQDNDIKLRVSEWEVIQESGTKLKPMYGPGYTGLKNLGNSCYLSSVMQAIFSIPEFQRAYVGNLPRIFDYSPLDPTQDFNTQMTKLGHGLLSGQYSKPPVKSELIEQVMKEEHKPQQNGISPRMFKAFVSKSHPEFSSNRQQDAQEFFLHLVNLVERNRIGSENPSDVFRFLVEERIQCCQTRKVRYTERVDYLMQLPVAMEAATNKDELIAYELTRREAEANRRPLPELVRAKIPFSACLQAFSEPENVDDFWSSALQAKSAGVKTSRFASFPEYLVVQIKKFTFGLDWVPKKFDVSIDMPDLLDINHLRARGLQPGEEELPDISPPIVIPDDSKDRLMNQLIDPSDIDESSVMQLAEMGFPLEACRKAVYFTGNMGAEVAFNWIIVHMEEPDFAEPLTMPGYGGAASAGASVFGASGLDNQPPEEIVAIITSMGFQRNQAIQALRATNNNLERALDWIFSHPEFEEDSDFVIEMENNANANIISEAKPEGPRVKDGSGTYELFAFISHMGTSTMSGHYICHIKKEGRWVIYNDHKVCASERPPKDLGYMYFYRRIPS

Bel-7402 = assay: Antiproliferative activity against human Bel-7402 cells by CCK-8 method

T1 sequence (Q14694 whole entry): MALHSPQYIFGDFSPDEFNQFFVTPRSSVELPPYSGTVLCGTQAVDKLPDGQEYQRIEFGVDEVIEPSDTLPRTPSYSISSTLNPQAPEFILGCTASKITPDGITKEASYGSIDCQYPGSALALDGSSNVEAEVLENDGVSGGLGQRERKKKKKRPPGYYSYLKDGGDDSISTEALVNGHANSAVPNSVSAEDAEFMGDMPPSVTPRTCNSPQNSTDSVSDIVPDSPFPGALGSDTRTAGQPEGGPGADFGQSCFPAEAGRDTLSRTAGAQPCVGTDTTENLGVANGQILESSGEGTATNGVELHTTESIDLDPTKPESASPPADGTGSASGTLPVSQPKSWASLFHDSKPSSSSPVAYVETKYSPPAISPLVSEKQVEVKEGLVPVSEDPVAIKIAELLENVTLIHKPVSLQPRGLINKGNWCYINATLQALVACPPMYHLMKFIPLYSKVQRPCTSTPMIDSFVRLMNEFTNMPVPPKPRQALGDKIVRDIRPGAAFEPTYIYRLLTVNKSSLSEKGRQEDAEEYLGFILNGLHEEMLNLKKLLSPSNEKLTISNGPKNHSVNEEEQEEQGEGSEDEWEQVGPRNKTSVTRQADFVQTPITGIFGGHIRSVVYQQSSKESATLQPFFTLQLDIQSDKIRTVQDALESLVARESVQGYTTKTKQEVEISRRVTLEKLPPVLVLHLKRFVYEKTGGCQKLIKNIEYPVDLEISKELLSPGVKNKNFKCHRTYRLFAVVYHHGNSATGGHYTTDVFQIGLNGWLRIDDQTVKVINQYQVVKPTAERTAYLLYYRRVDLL

SMILES | IC50 [1] [µM] | also measured
Cc1ccc2c(=O)c(C(=O)NC3CCOCC3)cn(CC(=O)NCCc3ccc(Cl)cc3)c2n1 | > 30 | –
Cc1ccccc1NC(=O)c1c[nH]c2cc(C(F)(F)F)ccc2c1=O | > 30 | –
Cc1ccc2c(=O)c(-c3nnc(Cc4ccccc4)o3)cn(CC(=O)NCCc3ccc(Cl)cc3)c2c1 | 9 | –
Cc1ccc2c(=O)c(C(=O)N[C@@H](C)c3ccc(F)cc3)cn(CC(=O)NCCc3ccc(Cl)cc3)c2c1 | > 30 | –
Cc1ccccc1NC(=O)c1cn(CC(=O)N2CCC(N3CCN(C)CC3)CC2)c2cc(C(F)(F)F)ccc2c1=O | > 30 | –
Cc1ccccc1NC(=O)c1cn(CC(=O)NCCc2ccc(Cl)cc2)c2ccc(F)cc2c1=O | > 30 | –
COc1ccc([C@H](C)NC(=O)c2cn(CC(=O)NCCc3ccc(Cl)cc3)c3cc(C)ccc3c2=O)cc1 | 21.2 | –
Cc1ccc2c(c1)c(=O)c(C(=O)Nc1ccccc1C)cn2CC(=O)NCCc1ccc(Cl)cc1 | > 30 | –
Cc1ccc2c(=O)c(C(=O)N[C@@H](C)c3ccccc3)cn(CC(=O)N3CCN(c4ccc(Cl)cc4)CC3)c2c1 | 10.9 | –
Cc1ccccc1NC(=O)c1cn(CC(=O)NCCc2ccc(Cl)cc2)c2cc(N3CCCCC3)ccc2c1=O | 10.6 | –
COc1ccc2c(=O)c(-c3nc(-c4ccccc4C)no3)cn(CC(=O)NCCc3ccc(Cl)cc3)c2c1 | 7.9 | –
Cc1ccc2c(=O)c(-c3nc(-c4ccccc4C)no3)cn(CC(=O)NC3CCN(c4ccc(Cl)cc4)CC3)c2c1 | 9.2 | –
CCOC(=O)c1cc([N+](=O)[O-])c(Oc2ccc(C(=O)OC)cc2)s1 | – | IC50 [2]: 8.3 µM
Cc1ccc2c(=O)c(C(=O)N[C@@H](C)c3ccccc3)cn(CC(=O)NCCc3ccc(Cl)cc3)c2c1 | > 30 | –
Cc1ccccc1NC(=O)c1cn(CC(=O)NC(C)CO)c2cc(C(F)(F)F)ccc2c1=O (stereo not given) | > 30 | –
COCCOc1ccc(N2CCN(C(=O)Cn3cc(C(=O)Nc4ccccc4C)c(=O)c4ccc(C(F)(F)F)cc43)CC2)cc1 | > 30 | –
C[C@H](NC(=O)c1cn(CC(=O)NCCc2ccc(Cl)cc2)c2cc(F)ccc2c1=O)c1ccccc1 | 11.9 | –
Cc1ccc2c(=O)c(C(=O)Nc3ccccc3C)cn(CC(=O)NCCc3ccc(Cl)cc3)c2n1 | 9.5 | –
Fc1ccc(CNc2ncnc3ccc(F)cc23)cc1 | – | IC50 [3]: 0.7 µM
Cc1ccc2c(=O)c(C(=O)N3CCOCC3)cn(CC(=O)NCCc3ccc(Cl)cc3)c2n1 | > 30 | –
Cc1ccccc1NC(=O)c1cn(CC(=O)N2CC3(CCN(C(=O)OC(C)(C)C)CC3)C2)c2cc(C(F)(F)F)ccc2c1=O | > 30 | –
Cc1ccccc1NC(=O)c1cn(CC(=O)NCCc2ccc(Cl)cc2)c2cc(N3CCOCC3)ccc2c1=O | 8.4 | –
C[C@H](NC(=O)c1cn(CC(=O)NCCc2ccc(Cl)cc2)c2cc(C(F)(F)F)ccc2c1=O)c1ccccc1 | > 30 | –
Cc1ccc2c(=O)c(-c3nc(-c4ccccc4C)no3)cn(CC(=O)Nc3c(F)cccc3F)c2n1 | 11.1 | IC50 (Bel-7402): 22.7 µM
